How the values were obtained:
PpUGT91AH5 = experiment: LC-MS glucosyltransferase assay, varied trillin; type: biochemical, Paris polyphylla; details: saturating UDP-glucose; assay buffer 50 mM Tris-HCl pH 8.0, 1 mM MgCl2, 37 °C
PpUGT91AH4 = experiment: LC-MS glucosyltransferase assay, varied trillin; type: biochemical, Paris polyphylla; details: saturating UDP-glucose; assay buffer 50 mM Tris-HCl pH 8.0, 1 mM MgCl2, 37 °C

Compound `C[C@@H]1CC[C@@]2(OC1)O[C@H]1C[C@H]3[C@@H]4CC=C5C[C@@H](O[C@@H]6O[C@H](CO)[C@@H](O)[C@H](O)[C@H]6O)CC[C@]5(C)[C@H]4CC[C@]3(C)[C@H]1[C@@H]2C` [trillin] has a Km (PpUGT91AH5) of 7.81 ± 1.2 mM and a Km (PpUGT91AH4) of 5.67 ± 0.84 mM.
